Assay results from US20260284082A1, “TARGETING THE PANX1-P2Y2R-TRPV4 PATHWAY TO TREAT LUNG ISCHEMIA-REPERFUSION INJURY” (UNIVERSITY OF VIRGINIA PATENT FOUNDATION, priority 2023, published 2026).

Legend:
[1] = test system: pulmonary endothelium of small PAs; test: Baseline endothelial Ca2+ signaling in en face small PAs after lung IR (Fluo-4 confocal imaging); assay type: cell-based, mice
Experimental: (§1) Murine lung IR model: A well-established left lung IRI model involving temporary in vivo ligation of the left hilum (pulmonary artery, vein, and airway) was used.^6 Briefly, mice were anesthetized with inhaled isoflurane, intubated, ventilated with room air at 150 strokes/min with a tidal volume of […] (Harvard Apparatus Co, South Natick, MA), and heparinized (20 U/kg: Hospira Inc, Lake Forest, IL). An anterolateral thoracotomy was performed through the fourth intercostal space to expose the left hilum. A 6-0 Prolene suture (Ethicon. Somerville, NJ) was passed around the left hilum, and the suture ends were passed through a 5-mm length of polyethylene (PE)-50 tubing. A surgical clip was used to fashion a Rummel tourniquet to provide temporary occlusion of the left hilar structures. The thoracotomy was closed, anesthesia was weaned, and analgesia was administered (intraperitoneal buprenorphine. 0.2 mg/kg). Animals recovered in their cages during the 1-hour ischemic period, after which they were anesthetized again and intubated, the Rummel tourniquet was removed, and the thoracotomy was closed. Animals were again extubated, recovered in their cage, and monitored during the 2-hour reperfusion period. Sham animals underwent the same surgical procedure except that application of the Rummel tourniquet to induce ischemia was omitted; thus, these animals were perfused for a total of 3 hours.
Ca^2+ imaging in Pas: Ca^2+ imaging in small Pas was performed as previously described.8 Fourth-order, small (~50 μm diameter) Pas (see FIG. 1B) were dissected from left lungs in cold HEPES-buffered physiological salt solution (HEPES-PSS; 10 mM HEPES, 134 mM NaCl, 6 mM KCl, 1 mM MgCl2 hexahydrate, 2 mM CaCl2) dihydrate, and 7 mM dextrose; pH adjusted to 7.4 using 1 M NaOH). […] Fluo-4 was excited using a 488-nm solid-state laser, and emitted fluorescence was captured using a 525/36-nm band-pass filter. […] Baseline Ca^2+ signaling activity was recorded in the absence of CPA. […]

TRPV4EC channels = test: TRPV4 sparklet activity in endothelium of small PAs after lung IR (in presence of CPA); assay type: cell-based, mice
Experimental: as §1, with “Sham animals underwent the same surgical procedure except that application of the Rummel tourniquet to induce ischemia was omitted; thus, these animals were perfused for a total of 3 hours.” left out
Ca^2+ imaging in Pas: Ca^2+ imaging in small Pas was performed as previously described.8 Fourth-order, small (~50 μm diameter) Pas (see FIG. 1B) were dissected from left lungs in cold HEPES-buffered physiological salt solution (HEPES-PSS; 10 mM HEPES, 134 mM NaCl, 6 mM KCl, 1 mM MgCl2 hexahydrate, 2 mM CaCl2) dihydrate, and 7 mM dextrose; pH adjusted to 7.4 using 1 M NaOH). […] Fluo-4 was excited using a 488-nm solid-state laser, and emitted fluorescence was captured using a 525/36-nm band-pass filter. […] Baseline Ca^2+ signaling activity was recorded in the absence of CPA.
TRPV4 sparklets were assessed as increases in fluorescence relative to baseline fluorescence, obtained by averaging 10 quiescent images prior to stimulation. […]

[2] = dog, in vivo; cited from earlier work
[3] = ARC 10 μmol/L, small PAs of C57BL6/J mice

Cc1ccc2c(c1)C=Cc1cc(C)ccc1C2c1cn(Cc2ccc(C(=O)Nc3nn[nH]n3)o2)c(=O)[nH]c1=S [ARC, AR-C 118925XX]
lung IR-induced increase in baseline endothelial Ca2+ signaling activity [1, 3]: abolished
lung IR-induced increase in TRPV4EC sparklet activity (TRPV4EC channels; [3]): inhibited

O=C(NC1(c2ccccc2)CC1)c1c(CN2CCC(N3CCCCC3)CC2)c(-c2cccc(C(F)(F)F)c2)nc2cc(Br)ccc12 [GSK219, GSK2193874]
increase in baseline endothelial Ca2+ signals after lung IR ([1]; GSK219 100 nM, small PAs of control mice, 1 h ischemia + 2 h reperfusion): completely abolished
plasma half-life (t1/2) [2]: 31 h
IR-induced increase in TRPV4EC sparklet activity (TRPV4EC channels; GSK219, CPA 20 μM present, small PAs after lung IR): inhibited
